What was measured:
Type in all cases: in vivo
[1] = system: pigweed (Amaranthus retroflexus); assay: Test D pre-/postemergence: pigweed
Excerpt: (§1) Seeds of plant species selected from bluegrass (annual bluegrass, Poa annua), blackgrass (Alopecurus myosuroides), canarygrass (Phalaris minor), chickweed (common chickweed, Stellaria media), galium (catchweed bedstraw, Galium aparine), bromegrass, downy (downy bromegrass, Bromus tectorum), field poppy (Papaver rhoeas), field violet (Viola arvensis), foxtail, green (green foxtail, Setaria viridis), deadnettle (henbit deadnettle, Lamium amplexicaule), ryegrass, Italian (Italian ryegrass, Lolium multiflorum), kochia (Kochia scoparia), lambsquarters (Chenopodium album), oilseed rape (Brassica napus), pigweed (Amaranthus retroflexus), Russian thistle (Salsola iberica), chamomile (scentless chamomile, Matricaria inodora), speedwell (bird's-eye speedwell, Veronica persica), barley, spring (spring barley, Hordeum vulgare), wheat, spring (spring wheat, Triticum aestivum), buckwheat, wild (wild buckwheat, Polygonum convolvulus), mustard, wild (wild mustard, Sinapis arvensis), oat, wild (wild oat, Avena fatua), radish, wild (wild radish, Raphanus raphanistrum), windgrass (Apera spica-venti), barley, winter (winter barley, Hordeum vulgare), and wheat, winter (winter wheat, Triticum aestivum) were planted into a silt loam soil and treated preemergence with test chemicals formulated in a non-phytotoxic solvent mixture which included a surfactant. At the same time, these same crop and weed species were planted in pots containing the planting medium comprising spaghnum peat moss, vermiculite, wetting agent and starter nutrients and treated with postemergence applications of the test chemicals formulated in the same manner. Plants ranged in height from 2 to 18 cm (1- to 4-leaf stage).
(§2) Treated plants and controls were maintained in a controlled growth environment for 14 to 21 days after which time all species were compared to controls and visually evaluated. Plant response ratings, summarized in Table D, are based on a scale of 0 to 100 where 0 is no effect and 100 is complete control. A dash (-) response means no test result.

[2] = system: foxtail, green (green foxtail, Setaria viridis); assay: Test D pre-/postemergence: foxtail, green
Excerpt: as §1, §2

[3] = system: barley, winter (winter barley, Hordeum vulgare); assay: Test D pre-/postemergence: barley, winter
Excerpt: as §1, §2

[4] = Postemergence, 31 g ai/ha, scale 0 to 100 (0 no effect, 100 complete control)
[5] = Postemergence, 62 g ai/ha, scale 0 to 100 (0 no effect, 100 complete control)
[6] = Postemergence, 125 g ai/ha, scale 0 to 100, 0 no effect, 100 complete control
[7] = Postemergence, 250 g ai/ha, scale 0 to 100 (0 no effect, 100 complete control)
[8] = Preemergence, 31 g ai/ha, scale 0 to 100, 0 no effect, 100 complete control
[9] = Preemergence, 62 g ai/ha, scale 0 to 100
[10] = Preemergence, 125 g ai/ha, scale 0 to 100
[11] = Preemergence, 250 g ai/ha, scale 0 to 100
[12] = Postemergence, 16 g ai/ha, scale 0 to 100
[13] = Preemergence, 16 g ai/ha, scale 0 to 100, 0 no effect, 100 complete control

| SMILES | Plant response rating: Pigweed [1, 4] | Plant response rating: Pigweed [1, 5] | Plant response rating: Pigweed [1, 6] | Plant response rating: Pigweed [1, 7] | Plant response rating, Pigweed [1, 8] | Plant response rating, Pigweed [1, 9] | Plant response rating, Pigweed [1, 10] | Plant response rating: Foxtail, Green [2, 4] | Plant response rating: Foxtail, Green [2, 5] | Plant response rating: Foxtail, Green [2, 6] | Plant response rating: Foxtail, Green [2, 7] | Plant response rating, Foxtail, Green [2, 8] | Plant response rating, Foxtail, Green [2, 9] | Plant response rating: Barley, Winter [3, 4] | Plant response rating: Barley, Winter [3, 5] | Plant response rating: Barley, Winter [3, 6] | Plant response rating: Barley, Winter [3, 7] | Plant response rating, Pigweed [1, 12] | Plant response rating, Foxtail, Green [2, 12] | Plant response rating, Barley, Winter [3, 12] | also measured |
| --- | --- | --- | --- | --- | --- | --- | --- | --- | --- | --- | --- | --- | --- | --- | --- | --- | --- | --- | --- | --- | --- |
| FC(F)(F)COc1nn(-c2ccc(C(F)(F)F)cc2)nc1Cc1ccnc(C(F)(F)F)c1 [Compound 14, 4-[[5-(2,2,2-trifluoroethoxy)-2-[4-(trifluoromethyl)phenyl]-2H-1,2,3-triazol-4-yl]methyl]-2-(trifluoromethyl)pyridine] | 100 | 100 | 100 | 100 | 20 | 70 | 90 | 10 | 25 | 30 | 95 | 0 | 10 | 10 | 25 | 35 | 40 | – | – | – | Plant response rating, Pigweed [1, 11]: 100; Plant response rating, Foxtail, Green [2, 10]: 75; Plant response rating, Foxtail, Green [2, 11]: 100; Plant response rating, Barley, Winter [3, 8]: 0; Plant response rating, Barley, Winter [3, 9]: 0; Plant response rating, Barley, Winter [3, 10]: 10; Plant response rating, Barley, Winter [3, 11]: 35 |
| COc1nn(-c2ccc(C(F)(F)F)cc2)nc1Cc1ccnc(C(F)(F)F)c1 [Compound 15, 4-[[5-methoxy-2-[4-(trifluoromethyl)phenyl]-2H-1,2,3-triazol-4-yl]methyl]-2-(trifluoromethyl)pyridine] | 80 | 80 | 100 | 100 | 20 | 70 | 98 | 30 | 80 | 75 | 100 | 70 | 100 | 10 | 15 | 20 | 40 | 80 | 15 | 10 | Plant response rating, Pigweed [1, 11]: 100; Plant response rating, Foxtail, Green [2, 10]: 100; Plant response rating, Foxtail, Green [2, 11]: 100; Plant response rating, Barley, Winter [3, 8]: 0; Plant response rating, Barley, Winter [3, 9]: 5; Plant response rating, Barley, Winter [3, 10]: 20; Plant response rating, Barley, Winter [3, 11]: 30 |
| Cc1nn(-c2ccc(C(F)(F)F)cn2)nc1Oc1ccnc(C(F)(F)F)c1 [Compound 23] | 50 | 80 | 95 | 100 | – | – | – | 15 | 20 | 25 | 25 | – | – | 0 | 10 | 10 | 20 | 50 | 15 | 0 | – |
| Cc1nn(-c2ccc(C(F)(F)F)cn2)nc1Cc1cccc(C(F)(F)F)c1 [Compound 106] | 50 | 60 | 90 | 90 | 0 | 0 | 20 | 10 | 20 | 30 | 40 | 0 | 0 | 5 | 5 | 5 | 10 | 10 | 0 | 0 | Plant response rating, Pigweed [1, 11]: 40; Plant response rating, Foxtail, Green [2, 10]: 0; Plant response rating, Foxtail, Green [2, 11]: 100; Plant response rating, Barley, Winter [3, 8]: 0; Plant response rating, Barley, Winter [3, 9]: 0; Plant response rating, Barley, Winter [3, 10]: 0; Plant response rating, Barley, Winter [3, 11]: 20 |
| Cc1nn(-c2ccc(C(F)(F)F)cc2)nc1Oc1ccnc(C(F)(F)F)c1 [Compound 120] | 90 | 90 | 100 | 100 | 100 | 100 | 100 | 15 | 80 | 95 | 100 | 100 | 100 | 15 | 20 | 20 | 40 | 0 | 5 | 10 | Plant response rating, Pigweed [1, 13]: 30; Plant response rating, Pigweed [1, 11]: 100; Plant response rating, Foxtail, Green [2, 13]: 70; Plant response rating, Foxtail, Green [2, 10]: 100; Plant response rating, Foxtail, Green [2, 11]: 100; Plant response rating, Barley, Winter [3, 13]: 0; Plant response rating, Barley, Winter [3, 8]: 0; Plant response rating, Barley, Winter [3, 9]: 10; Plant response rating, Barley, Winter [3, 10]: 15; Plant response rating, Barley, Winter [3, 11]: 40 |
| COc1nn(-c2ccc(C(F)(F)F)cc2)nc1Cc1ccnc(C(F)F)c1 [Compound 138] | 95 | 95 | 100 | 100 | – | – | – | 40 | 75 | 80 | 100 | – | – | 5 | 15 | 20 | 20 | 90 | 20 | 5 | – |
| Cc1nn(-c2ccc(F)c(C(F)(F)F)c2)nc1Cc1ccnc(C(F)(F)F)c1 [Compound 156] | 90 | 90 | 95 | – | 85 | 100 | 100 | 25 | 25 | 65 | – | 10 | 30 | 20 | 25 | 30 | – | 85 | 10 | 10 | Plant response rating, Pigweed [1, 13]: 50; Plant response rating, Foxtail, Green [2, 13]: 5; Plant response rating, Foxtail, Green [2, 10]: 100; Plant response rating, Barley, Winter [3, 13]: 5; Plant response rating, Barley, Winter [3, 8]: 5; Plant response rating, Barley, Winter [3, 9]: 10; Plant response rating, Barley, Winter [3, 10]: 15 |

Source: patent US9302999B2, “Substituted triazoles as herbicides” (E. I. DU PONT DE NEMOURS AND COMPANY, priority 2012, dated 2016)
